Drawing on patent US12173018B2, “Penicillin-binding protein inhibitors” (priority 2018, dated 2024), this text covers EC50 for 6 compounds.

SMILES strings stand for the structures. pEC50: −log10 of the molar value. Where two headings read alike, the source gives them in different places.

In one assay the target is E. coli PBP4 (Escherichia coli (strain K12), UniProt P24228). Put plainly: E. coli PBP4 Bocillin-FL fluorescence polarization competition binding assay. Put shortly: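 Purified PBP (1.5 μM final) was combined with test compound (0–1000 μM) and Bocillin-FL (fluorescent penicillin V, 0.1 μM final) in 50 mM Hepes pH 8.0, 300 mM NaCl, 5% glycerol.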
E. coli PBP4, sequence (P24228 21-477): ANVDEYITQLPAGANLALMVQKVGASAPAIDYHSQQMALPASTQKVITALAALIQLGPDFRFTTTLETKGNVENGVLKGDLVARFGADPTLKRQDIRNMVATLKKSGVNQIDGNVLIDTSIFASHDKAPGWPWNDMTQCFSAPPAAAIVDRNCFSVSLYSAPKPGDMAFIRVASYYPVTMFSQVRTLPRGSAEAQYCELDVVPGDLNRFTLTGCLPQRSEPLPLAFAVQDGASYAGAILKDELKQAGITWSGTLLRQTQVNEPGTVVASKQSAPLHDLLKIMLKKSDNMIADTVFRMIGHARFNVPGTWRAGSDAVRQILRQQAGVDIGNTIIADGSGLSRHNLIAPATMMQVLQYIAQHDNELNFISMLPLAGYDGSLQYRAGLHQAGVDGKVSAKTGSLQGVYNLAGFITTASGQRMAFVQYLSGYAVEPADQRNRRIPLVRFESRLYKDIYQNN
In general terms: In fluorescence polarisation assays a small probe gives low polarisation when free and higher when bound to something large.

Another assay has as its target E. coli PBP1a (Escherichia coli (strain K12), UniProt P02918). The assay is described as follows: Radioligand competition binding assay with 14C-labeled boronic acid probe, PBP1a. In outline: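 Purified E. coli PBP1a (0.1 μM) preincubated 60 min with test boronic acid inhibitor in 20 mM Tris pH 7.5, 500 mM NaCl, 0.1% Triton X-100, then 60 min with 20 μM ^14C-labeled boronic acid probe. Bound probe recovered by spin desalting and counted by scintillation; EC50 reported.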
(Displacement assays read how much labelled ligand stays bound in the presence of the test substance.)

Setting [1] is: fluorescence polarization competition binding with Bocillin-FL, read-out: E. coli K12 PBP4 Potency (EC50).

E. coli PBP1a, sequence (P02918 whole entry): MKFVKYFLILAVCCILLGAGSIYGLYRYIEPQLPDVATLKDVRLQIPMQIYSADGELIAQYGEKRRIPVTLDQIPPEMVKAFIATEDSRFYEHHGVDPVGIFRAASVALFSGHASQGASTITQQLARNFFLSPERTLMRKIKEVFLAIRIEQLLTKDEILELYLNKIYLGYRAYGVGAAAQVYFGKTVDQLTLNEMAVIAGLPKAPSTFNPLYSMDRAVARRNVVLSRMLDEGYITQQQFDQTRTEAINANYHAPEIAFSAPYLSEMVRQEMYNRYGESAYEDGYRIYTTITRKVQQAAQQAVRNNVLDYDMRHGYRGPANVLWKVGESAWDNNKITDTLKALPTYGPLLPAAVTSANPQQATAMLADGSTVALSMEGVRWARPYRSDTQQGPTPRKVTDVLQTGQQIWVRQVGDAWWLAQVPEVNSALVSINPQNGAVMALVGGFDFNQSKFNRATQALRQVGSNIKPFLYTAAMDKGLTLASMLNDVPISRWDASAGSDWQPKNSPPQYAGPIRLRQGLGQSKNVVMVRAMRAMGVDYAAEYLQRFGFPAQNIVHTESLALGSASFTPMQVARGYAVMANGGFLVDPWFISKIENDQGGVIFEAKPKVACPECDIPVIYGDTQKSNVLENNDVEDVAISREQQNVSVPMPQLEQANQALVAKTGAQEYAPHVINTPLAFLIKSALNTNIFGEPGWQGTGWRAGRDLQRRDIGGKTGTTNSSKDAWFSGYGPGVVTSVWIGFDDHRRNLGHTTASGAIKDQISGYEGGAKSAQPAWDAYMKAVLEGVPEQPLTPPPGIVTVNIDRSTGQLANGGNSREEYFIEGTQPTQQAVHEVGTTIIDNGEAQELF

Take `CCN1CCN(C(=O)NC(C(=O)N[C@H]2Cc3cccc(C(=O)O)c3OB2O)c2csc(N)n2)C(=O)C1=O` (stereo partly drawn) [Example 5, (3R)-3-(2-(2-aminothiazol-4-yl)-2-(4-ethyl-2,3-dioxopiperazine-1-carboxamido)acetamido)-2-hydroxy-3,4-dihydro-2H-benzo[e][1,2]oxaborinine-8-carboxylic acid]: the pEC50 is less than 3.30 on E. coli PBP4 (setting [1]) and greater than 5.00 at E. coli PBP1a.

Consider `CCN1CCN(C(=O)NC(C(=O)N[C@H]2Cc3cccc(C(=O)O)c3OB2O)c2ccc(O)cc2)C(=O)C1=O` (stereo partly drawn) [Example 27, (3R)-3-(2-(4-ethyl-2,3-dioxopiperazine-1-carboxamido)-2-(4-hydroxyphenyl)acetamido)-2-hydroxy-3,4-dihydro-2H-benzo[e][1,2]oxaborinine-8-carboxylic acid], for which the pEC50 at E. coli PBP4 (setting [1]) was less than 3.30; at E. coli PBP1a, greater than 5.00.

Turning to `CCN1CCN(C(=O)NC(C(=O)N[C@H]2Cc3cccc(C(=O)O)c3OB2O)c2cnc(O)cn2)C(=O)C1=O` (stereo partly drawn) [Example 121, (3R)-3-(2-(4-ethyl-2,3-dioxopiperazine-1-carboxamido)-2-(5-hydroxypyrazin-2-yl)acetamido)-2-hydroxy-3,4-dihydro-2H-benzo[e][1,2]oxaborinine-8-carboxylic acid], at E. coli PBP4 (setting [1]), the pEC50 is less than 3.30.

In turn, `O=C(O)c1c(F)ccc2c1OB(O)[C@@H](NC(=O)C(NC(=O)N1CCN(CCF)C(=O)C1=O)c1ccc(O)c(O)c1Cl)C2` (some centres unmarked) [Example 131] gave a pEC50 at E. coli PBP4 of 3.30 to 4.52.

Turning to `CCN1CCN(C(=O)NC(C(=O)N[C@H]2Cc3ccc(F)c(C(=O)O)c3OB2O)c2cc(O)c(O)cc2F)C(=O)C1=O` (stereo partly drawn) [Example 136, (3R)-3-(2-(4-ethyl-2,3-dioxopiperazine-1-carboxamido)-2-(2-fluoro-4,5-dihydroxyphenyl)acetamido)-7-fluoro-2-hydroxy-3,4-dihydro-2H-benzo[e][1,2]oxaborinine-8-carboxylic acid], on E. coli PBP4 (setting [1]), the negative logarithm of the EC50 (pEC50) was less than 3.30.

Turning to `CCN1CCN(C(=O)NC(C(=O)N[C@H]2Cc3ccc(F)c(C(=O)O)c3OB2O)c2ncc(O)cc2F)C(=O)C1=O` (stereo partly drawn) [Example 145, (3R)-3-(2-(4-ethyl-2,3-dioxopiperazine-1-carboxamido)-2-(3-fluoro-5-hydroxypyridin-2-yl)acetamido)-7-fluoro-2-hydroxy-3,4-dihydro-2H-benzo[e][1,2]oxaborinine-8-carboxylic acid], the pEC50 at E. coli PBP4 (setting [1]) is less than 3.30.

As usually defined, the pEC50 is the negative decadic logarithm of the EC50, by convention in mol/L.
